The source of these data is patent US11477985B2, “Herbicidal mixtures comprising L-glufosinate or its salt and at least one photosynthesis inhibitor” (BASF SE, priority 2017, dated 2022).

SMILES strings stand for the structures.

Type in all cases: in vivo
For one assay, the system named is Abutilon theophrasti. The assay is described as follows: Post emergence treatment, greenhouse pot test, herbicidal activity against ABUTH. The settings on record: scale 0 to 100. The text has this:
(§1) Synergism can be described as an interaction where the combined effect of two or more compounds is greater than the sum of the individual effects of each of the compounds. The presence of a synergistic effect in terms of percent control, between two mixing partners (X and Y) can be calculated using the Colby equation (Colby, S. R., 1967, Calculating Synergistic and
(§2) When the observed combined control effect is greater than the expected (calculated) combined control effect (E), then the combined effect is synergistic.
(§3) However, the weed control afforded by the compounds, mixtures or compositions is not limited to these species. The analysis of synergism or antagonism between the mixtures or compositions was determined using Colby's equation.
(§4) The culture containers used were plastic flowerpots containing loamy sand with approximately 3.0% of humus as the substrate. The seeds of the test plants were sown separately for each species and/or resistant biotype. For the pre-emergence treatment, the active ingredients, which had been suspended or emulsified in water, were applied directly after sowing by means of finely distributing nozzles. The containers were irrigated gently to promote germination and growth and subsequently covered with transparent plastic hoods until the plants had rooted. This cover caused uniform germination of the test plants, unless this had been impaired by the active ingredients. For the post-emergence treatment, the test plants were first grown to a height of 3 to 15 cm, depending on the plant habit, and only then treated with the active ingredients which had been suspended or emulsified in water. For this purpose, the test plants were either sown directly and grown in the same containers, or they were first grown separately as seedlings and transplanted into the test containers a few days prior to treatment. Depending on the species, the plants were kept at 10-25° C. or 20-35° C., respectively. The test period extended to 20 days after treatment. During this time, the plants were tended, and their response to the individual treatments was evaluated. […]

In another assay the test system is Avena fatua. The assay is described as follows: Post emergence treatment, greenhouse pot test, herbicidal activity against AVEFA.
Excerpt: as §1, §2, §3, §4

For another assay, the system named is Setaria viridis. Kind of assay: Post emergence treatment, greenhouse pot test, herbicidal activity against SETVI. Conditions: scale 0 to 100.
Excerpt: as §1, §2, §3, §4

In the case of `CP(=O)(O)CC[C@H](N)C(=O)O` [L-Glufosinate, (2S)-2-amino-4-[hydroxy(methyl)phosphinoyl]butyric acid], the “Herbicidal activity against ABUTH, Found” value with Abutilon theophrasti (L-Glufosinate 75 g ai/ha alone) was found to be 0. Further, the “Herbicidal activity against AVEFA, Found” value in the assay with Avena fatua (L-Glufosinate 300 g ai/ha alone, scale 0 to 100, mean of two replications) is given as 20. Besides, the “Herbicidal activity against SETVI, Found” value in the assay on Setaria viridis (L-Glufosinate 75 g ai/ha alone) worked out at 0; with Setaria viridis (L-Glufosinate 150 g ai/ha alone), 70.

On to `O=C(Nc1ccccc1)Nc1cnns1` [Thidiazuron, thiadizuron], for which, in the assay on Setaria viridis (Thidiazuron 50 g ai/ha alone), the “Herbicidal activity against SETVI, Found” value turned out to be 0.

In the case of `CN(C)C(=O)Nc1ccc(Cl)c(Cl)c1` [Diuron, diuron], the “Herbicidal activity against AVEFA, Found” value in the assay with Avena fatua (Diuron 125 g ai/ha alone, scale 0 to 100) is given as 20; in the assay on Avena fatua (Diuron 250 g ai/ha alone, scale 0 to 100) it was 30.

Take `CN(C)C(=O)Nc1cccc(C(F)(F)F)c1` [Fluometuron, fluometuron]: the “Herbicidal activity against ABUTH, Found” value in the assay with Abutilon theophrasti (Fluometuron 125 g ai/ha alone) came to 0; in the assay with Abutilon theophrasti (Fluometuron 250 g ai/ha alone), 20.
